Test results reported in US20030152953A1, “Polynucleotide encoding a novel human potassium channel alpha-subunit, K+alphaM2” (priority 2001, published 2003).
Like-named read-outs stand apart in the source and are kept apart here.

Experiments:
[1] = target: T1, Kv2.2 (UniProt Q92953); details: cited from earlier work; for IC50: read-out: IC50, inhibition of Kv2.2 current
T1 sequence (Q92953 1-911): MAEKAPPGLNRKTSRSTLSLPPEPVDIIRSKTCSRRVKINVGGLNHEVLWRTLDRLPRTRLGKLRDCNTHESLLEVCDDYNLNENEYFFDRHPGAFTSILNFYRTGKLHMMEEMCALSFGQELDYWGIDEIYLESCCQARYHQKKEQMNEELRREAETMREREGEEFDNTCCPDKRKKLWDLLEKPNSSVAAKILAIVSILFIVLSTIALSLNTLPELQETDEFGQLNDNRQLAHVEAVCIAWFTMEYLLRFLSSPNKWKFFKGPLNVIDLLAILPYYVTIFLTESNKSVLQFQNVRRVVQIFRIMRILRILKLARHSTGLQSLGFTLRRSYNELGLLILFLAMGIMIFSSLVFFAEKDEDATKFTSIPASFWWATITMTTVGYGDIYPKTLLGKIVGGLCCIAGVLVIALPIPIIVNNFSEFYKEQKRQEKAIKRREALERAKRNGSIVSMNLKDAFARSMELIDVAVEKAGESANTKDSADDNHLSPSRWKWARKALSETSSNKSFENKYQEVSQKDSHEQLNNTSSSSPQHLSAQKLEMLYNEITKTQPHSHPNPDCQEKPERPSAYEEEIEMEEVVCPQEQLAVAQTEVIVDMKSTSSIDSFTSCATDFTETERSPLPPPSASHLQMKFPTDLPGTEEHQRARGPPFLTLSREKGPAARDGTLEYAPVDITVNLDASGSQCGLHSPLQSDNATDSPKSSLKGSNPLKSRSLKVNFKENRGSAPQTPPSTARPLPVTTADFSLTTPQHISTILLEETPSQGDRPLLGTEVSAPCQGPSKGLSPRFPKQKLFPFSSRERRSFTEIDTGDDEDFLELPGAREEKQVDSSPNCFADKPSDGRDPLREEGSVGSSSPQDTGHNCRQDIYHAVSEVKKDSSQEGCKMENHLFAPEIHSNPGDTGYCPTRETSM

[2] = tested on: slow component of the delayed rectifier current in native colonic myocytes; details: 1 microM; cited from earlier work
[3] = tested on: Human lung fibroblasts; test: Human lung fibroblast growth, Alamar Blue; format: cell-based; details: 3 days in basal medium
Procedure: Human lung fibroblasts are obtained from Clonetics (San Diego, Calif.) and maintained in growth media from Clonetics. Dermal microvascular endothelial cells are obtained from Cell Applications (San Diego, Calif.). For proliferation assays, the human lung fibroblasts and dermal microvascular endothelial cells can be cultured at 5,000 cells/well in a 96-well plate for one day in growth medium. The cells are then incubated for one day in 0.1% BSA basal medium. After replacing the medium with fresh 0.1% BSA medium, the cells are incubated with the test proteins for 3 days. Alamar Blue (Alamar Biosciences, Sacramento, Calif.) is added to each well to a final concentration of 10%. The cells are incubated for 4 hr. Cell viability is measured by reading in a CytoFluor fluorescence reader. For the PGE2 assays, the human lung fibroblasts are cultured at 5,000 cells/well in a 96-well plate for one day. […]

[4] = tested on: cortical or hippocampal neurons; details: in vitro; cited from earlier work
[5] = tested on: nigral dopaminergic neurons; details: tissue culture paradigms; cited from earlier work
[6] = tested on: nigral dopaminergic neurons; details: gel foam implants in the striatum; cited from earlier work
[7] = tested on: Kv2.1; details: Kv2.1 alone; cited from earlier work
[8] = tested on: Kv2.1/Kv9.1; details: cited from earlier work
[9] = Xenopus oocytes injected with Kv2.2 mRNA

C=C[C@H]1C[N@@]2CC[C@H]1C[C@H]2[C@H](O)c1ccnc2ccc(OC)cc12 [quinine]
IC50 [1, 9]: 13.7 µM | block of delayed rectifier current [2]: preferentially block the slow component of the delayed rectifier current

FGF-2: FGF-2 (basic FGF), fibroblast growth factor
concentration showing stimulation of fibroblast growth [3]: 10 to 2500 ng/mL | neurite outgrowth [4]: increases | neuron survival [4]: increases | activity towards nigral dopaminergic neurons [5]: trophic activity | protection of nigral dopaminergic neurons from MPTP toxicity [6]: near complete protection

charybdotoxin
sensitivity of Kv2.2 current [1, 9]: insensitive

CC[N+](CC)(CC)CC [tetraethylammonium]
IC50 [1]: 2600 µM | sensitivity of currents to blocker [7]: sensitive | effect on biphasic voltage-dependence of currents ([8]; 20 mM): eliminate the biphasic voltage-dependence | sensitivity of currents to blocker ([8]; Kv2.1/Kv9.1): sensitive
